Test results reported in patent US20110144159A1, “ETHER BENZYLIDENE PIPERIDINE ARYL CARBOXAMIDE COMPOUNDS USEFUL AS FAAH INHIBITORS” (Pfizer Inc, priority 2008, published 2011).

Biological target: T1, Human FAAH (Homo sapiens, UniProt O00519)
T1 construct: made in house
T1 sequence (O00519 32-579 limits assumed): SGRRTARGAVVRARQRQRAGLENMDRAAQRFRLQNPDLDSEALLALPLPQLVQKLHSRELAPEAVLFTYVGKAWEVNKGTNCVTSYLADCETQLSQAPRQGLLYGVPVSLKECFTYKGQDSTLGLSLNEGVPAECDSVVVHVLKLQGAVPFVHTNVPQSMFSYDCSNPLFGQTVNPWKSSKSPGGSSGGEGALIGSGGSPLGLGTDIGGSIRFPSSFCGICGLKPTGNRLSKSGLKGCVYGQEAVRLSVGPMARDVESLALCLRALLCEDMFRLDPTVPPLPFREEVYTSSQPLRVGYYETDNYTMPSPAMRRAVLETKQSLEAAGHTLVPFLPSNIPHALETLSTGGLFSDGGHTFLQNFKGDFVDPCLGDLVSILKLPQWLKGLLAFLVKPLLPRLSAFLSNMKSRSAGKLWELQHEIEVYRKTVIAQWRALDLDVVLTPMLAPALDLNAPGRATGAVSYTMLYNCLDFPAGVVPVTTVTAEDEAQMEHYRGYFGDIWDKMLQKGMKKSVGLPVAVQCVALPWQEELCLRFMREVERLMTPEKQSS
Assay: FAAH assay (glutamate dehydrogenase-coupled, oleamide substrate, absorbance at 340 nm)
Assay type: biochemical
Conditions: for hFAAH KInact/K: irreversible inhibition potency
Procedure: A FAAH assay may be carried out in 384-well clear polystyrene plates in a total volume of 50 μl per well. All percents are by volume. To each well was placed the reaction mixture (40 μl) containing 1-4 nM FAAH, 50 mM NaPi, pH 7.4, 3 mM α-ketoglutarate, 0.15 mM NADH, 7.5 U/ml glutamate dehydrogenase, 2 mM ADP, 1 mM EDTA, and 0.1% Triton X-100 (The concentration shown for each component was the final concentration in the assay). To this mixture was added 5 μl of a compound of Examples 1 to 20 at various concentrations prepared in 50% DMSO (or 5 μl 50% DMSO for controls). This was immediately followed by the addition of 5 μl oleamide (500 μM) dissolved in 75% EtOH/25% DMSO and the reaction mixture was mixed for 1.5 min. The final concentrations of DMSO and EtOH in the assay are each 7.5%. The reactions was then incubated at 30° C. and the absorbance at 340 nm was collected over a period of 90 min with readings taken in 30-second intervals using SpectraMax Plus^384 Microplate Spectrophotometer (Molecular Devices, Sunnyvale, Calif.). Human FAAH used in the assay was prepared as described in the patent application WO 2006/067613. The purity of the enzyme used was greater than 98% based on an analysis by SDS-polyacrylamide gel electrophoresis followed by Coomassie Blue staining.
Initial velocity data (V) is obtained from the slopes of the initial progressive curves. They are plotted as a function of substrate concentration and fit to the Michaelis-Menten equation (1) using Prism (GraphPad Software, Inc., San Diego, Calif.) software to obtain Km and Vmax values.
To obtain potencies of irreversible inhibitors, progressive curves consistent with first order inhibition kinetics (two-step irreversible inhibition mechanism) are fit to equation (2) by nonlinear least squares regressions to determine kobs values at each inhibitor concentration, where [P]t is the absorbance at time t, V0 is a constant related to the steady state rate of the uninhibited reaction, and kobs is the first order rate constant for enzyme inactivation. The inhibitor dissociation constant (Ki) and the first order rate
constant of enzyme inactivation at infinite inhibitor concentration (kinact) are then obtained by fitting the kobs vs. [I] curves to equation (3).

| hFAAH KInact/K | kinact/KI (further compounds, read-out: hFAAH_Kinact/Ki—StL) | Compound |
| --- | --- | --- |
| 207 M⁻¹ s⁻¹ |  | CC1CN(CCOc2cccc(C=C3CCN(C(=O)Nc4cccnn4)CC3)c2)CC(C)O1 (stereo not shown) [Example 102, 4-{3-[2-(2,6-dimethylmorpholin-4-yl)ethoxy]benzylidene}-N-pyridazin-3-ylpiperidine-1-carboxamide] |
|  | 3130 M⁻¹ s⁻¹ | O=C(Nc1cccnc1)N1CCC(=Cc2cccc(OCC3CCCCO3)c2)CC1 (stereo not shown) [N-pyridin-3-yl-4-[3-(tetrahydro-2H-pyran-2-ylmethoxy)benzylidene]piperidine-1-carboxamide] |
| 16400 M⁻¹ s⁻¹ |  | O=C(Nc1cccnn1)N1CCC(=Cc2cccc(OC3CCC(F)(F)CC3)c2)CC1 [Example 106, 4-{3-[(4,4-difluorocyclohexyl)oxy]benzylidene}-N-pyridazin-3-ylpiperidine-1-carboxamide] |
| 294 M⁻¹ s⁻¹ |  | O=C(Nc1cccnn1)N1CCC(=Cc2cccc(OCc3cccc(C(F)(F)F)n3)c2)CC1 [Example 71, N-pyridazin-3-yl-4-(3-{[6-(trifluoromethyl)pyridin-2-yl]methoxy}benzylidene)piperidine-1-carboxamide] |
| 325 M⁻¹ s⁻¹ |  | O=C(Nc1cccnn1)N1CCC(=Cc2cccc(OCCN3CCCCCC3)c2)CC1 [Example 80, 4-[3-(2-azepan-1-ylethoxy)benzylidene]-N-pyridazin-3-ylpiperidine-1-carboxamide] |
| 27713 M⁻¹ s⁻¹ |  | O=C(Nc1cccnn1)N1CCC(=Cc2cccc(OCCCc3cnoc3)c2)CC1 [Example 94, 4-[3-(3-isoxazol-4-ylpropoxy)benzylidene]-N-pyridazin-3-ylpiperidine-1-carboxamide] |
| 276 M⁻¹ s⁻¹ |  | CCC(COC)Oc1cccc(C=C2CCN(C(=O)Nc3cccnn3)CC2)c1 (stereo not shown) [Example 98, 4-{3-[1-(methoxymethyl)propoxy]benzylidene}-N-pyridazin-3-ylpiperidine-1-carboxamide] |
| 3238 M⁻¹ s⁻¹ |  | O=C(Nc1cccnn1)N1CCC(=Cc2cccc(OC3CCC(C(F)(F)F)CC3)c2)CC1 (stereo not shown) [Example 97, N-pyridazin-3-yl-4-(3-{[4-(trifluoromethyl)cyclohexyl]oxy}benzylidene)piperidine-1-carboxamide] |
| 207 M⁻¹ s⁻¹ |  | COc1ccc(CCOc2cccc(C=C3CCN(C(=O)Nc4cccnn4)CC3)c2)cc1 [Example 77, 4-{3-[2-(4-methoxyphenyl)ethoxy]benzylidene}-N-pyridazin-3-ylpiperidine-1-carboxamide] |
| 10747 M⁻¹ s⁻¹ |  | O=C(Nc1cccnn1)N1CCC(=Cc2cccc(OCCc3cccnc3)c2)CC1 [Example 84, N-pyridazin-3-yl-4-[3-(2-pyridin-3-ylethoxy)benzylidene]piperidine-1-carboxamide] |
| 2505 M⁻¹ s⁻¹ |  | O=C(Nc1cccnn1)N1CCC(=Cc2cccc(OCC3Cc4ccccc4O3)c2)CC1 (stereo not shown) [Example 100, 4-[3-(2,3-dihydro-1-benzofuran-2-ylmethoxy)benzylidene]-N-pyridazin-3-ylpiperidine-1-carboxamide] |

Second part, the compound before the results:

| Compound | hFAAH KInact/K | kinact/KI (further compounds, read-out: hFAAH_Kinact/Ki—StL) |
| --- | --- | --- |
| Cc1cc(COc2cccc(C=C3CCN(C(=O)Nc4cccnn4)CC3)c2)c(C(F)(F)F)o1 [Example 63, 4-(3-{[5-methyl-2-(trifluoromethyl)-3-furyl]methoxy}benzylidene)-N-pyridazin-3-ylpiperidine-1-carboxamide] | 131 M⁻¹ s⁻¹ |  |
| C=CC(C)Oc1cccc(C=C2CCN(C(=O)Nc3cccnc3)CC2)c1 (stereo not shown) [Example 25, 4-{3-[(1-methylprop-2-en-1-yl)oxy]benzylidene}-N-pyridin-3-ylpiperidine-1-carboxamide] | 939 M⁻¹ s⁻¹ |  |
| COC(C)(C)CCOc1cccc(C=C2CCN(C(=O)Nc3cccnn3)CC2)c1 [Example 49, 4-[3-(3-methoxy-3-methylbutoxy)benzylidene]-N-pyridazin-3-ylpiperidine-1-carboxamide] | 1290 M⁻¹ s⁻¹ |  |
| N-pyridazin-3-yl-4-[3-(pyridin-2-ylmethoxy)benzylidene]piperidine-1-carboxamide [Example 46] | 353 M⁻¹ s⁻¹ |  |
| CCCC(C)Oc1cccc(C=C2CCN(C(=O)Nc3cccnn3)CC2)c1 (stereo not shown) [Example 31, 4-[3-(1-methylbutoxy)benzylidene]-N-pyridazin-3-ylpiperidine-1-carboxamide] | 7450 M⁻¹ s⁻¹ |  |
| O=C(Nc1cccnn1)N1CCC(=Cc2cccc(OC3CCC3)c2)CC1 [Example 9, 4-[3-(cyclobutyloxy)benzylidene]-N-pyridazin-3-ylpiperidine-1-carboxamide] | 531 M⁻¹ s⁻¹ |  |
| CCC(CC)Oc1cccc(C=C2CCN(C(=O)Nc3cccnc3)CC2)c1 [Example 15, 4-[3-(1-ethylpropoxy)benzylidene]-N-pyridin-3-ylpiperidine-1-carboxamide] | 216 M⁻¹ s⁻¹ |  |
| O=C(Nc1cccnn1)N1CCC(=Cc2cccc(OCC3CCOC3)c2)CC1 (stereo not shown) [Example 53, N-pyridazin-3-yl-4-[3-(tetrahydrofuran-3-ylmethoxy)benzylidene]piperidine-1-carboxamide] | 1750 M⁻¹ s⁻¹ |  |
| CC1CCCC(Oc2cccc(C=C3CCN(C(=O)Nc4cccnn4)CC3)c2)C1 (stereo not shown) [Example 38, 4-{3-[(3-methylcyclohexyl)oxy]benzylidene}-N-pyridazin-3-ylpiperidine-1-carboxamide] | 1090 M⁻¹ s⁻¹ |  |
| Cc1cccc(OCCOc2cccc(C=C3CCN(C(=O)Nc4cccnn4)CC3)c2)c1 [Example 52, 4-{3-[2-(3-methylphenoxy)ethoxy]benzylidene}-N-pyridazin-3-ylpiperidine-1-carboxamide] | 31600 M⁻¹ s⁻¹ |  |
| O=C(Nc1cccnn1)N1CCC(=Cc2ccc3c(c2)OCCO3)CC1 [Example 4, 4-(2,3-dihydro-1,4-benzodioxin-6-ylmethylene)-N-pyridazin-3-ylpiperidine-1-carboxamide] | 2770 M⁻¹ s⁻¹ |  |
| CCC(C)Oc1cccc(C=C2CCN(C(=O)Nc3cccnc3)CC2)c1 (stereo not shown) [Example 24, 4-(3-sec-butoxybenzylidene)-N-pyridin-3-ylpiperidine-1-carboxamide] | 758 M⁻¹ s⁻¹ |  |
| O=C(Nc1cccnc1)N1CCC(=Cc2cccc(OC3CCCCC3)c2)CC1 [Example 7, 4-[3-(cyclohexyloxy)benzylidene]-N-pyridin-3-ylpiperidine-1-carboxamide] | 1220 M⁻¹ s⁻¹ |  |
| 4-{3-[2-(3-methoxyphenyl)ethoxy]benzylidene}-N-pyridazin-3-ylpiperidine-1-carboxamide [Example 85] | 7770 M⁻¹ s⁻¹ |  |
| CCC(C)Oc1cccc(C=C2CCN(C(=O)Nc3cccnc3)CC2)c1 (stereo not shown) [Example 23, 4-(3-sec-butoxybenzylidene)-N-pyridin-3-ylpiperidine-1-carboxamide] | 555 M⁻¹ s⁻¹ |  |
| CCC(CC)Oc1cccc(C=C2CCN(C(=O)Nc3cccnn3)CC2)c1 [Example 28, 4-[3-(1-ethylpropoxy)benzylidene]-N-pyridazin-3-ylpiperidine-1-carboxamide] | 303 M⁻¹ s⁻¹ |  |
| COc1cccc(C=C2CCN(C(=O)Nc3cccnn3)CC2)c1 [Example 6, 4-(3-methoxybenzylidene)-N-pyridazin-3-ylpiperidine-1-carboxamide] | 1480 M⁻¹ s⁻¹ |  |
| CC(C)(F)CCOc1cccc(C=C2CCN(C(=O)Nc3cccnn3)CC2)c1 [Example 95, 4-[3-(3-fluoro-3-methylbutoxy)benzylidene]-N-pyridazin-3-ylpiperidine-1-carboxamide] | 3869 M⁻¹ s⁻¹ |  |
| CC(C)Oc1cccc(C=C2CCN(C(=O)Nc3cccnn3)CC2)c1 [Example 40, 4-(3-isopropoxybenzylidene)-N-pyridazin-3-ylpiperidine-1-carboxamide] | 2350 M⁻¹ s⁻¹ |  |
| Cc1cccc(COc2cccc(C=C3CCN(C(=O)Nc4cccnn4)CC3)c2)n1 [Example 67, 4-{3-[(6-methylpyridin-2-yl)methoxy]benzylidene}-N-pyridazin-3-ylpiperidine-1-carboxamide] | 370 M⁻¹ s⁻¹ |  |
